Data set [1] can be described thus: Stability test in plasma. Type of data set: in vitro ADME. To be noted: Rat plasma, 37° C.; for Residue % (180 minutes elapsed), Mean: 5 mM. On the procedure:
In order to test the stability (in vivo) of the Example compounds according to the present invention, the compounds of Examples 2, 3, 4, 8 and 15 were administered intravenously, and plasma concentrations over time were observed. In addition, procaine was used as a positive control. Plasma stability was measured three times by administering the test compound at a concentration of 5 mM to human, rat, or mouse plasma (90 μL) at 37° C. Results thereof are shown in Table below and FIGS. 3A to 3E.

Data set [2] can be described thus: Stability test in plasma. Type of data set: in vitro ADME. Details: Residue % (180 minutes elapsed), Mean: dose or concentration left out as unconfirmed. The conditions noted are these: 37° C. As to the method: In order to test the stability (in vivo) of the Example compounds according to the present invention, the compounds of Examples 2, 3, 4, 8 and 15 were administered intravenously, and plasma concentrations over time were observed. In addition, procaine was used as a positive control. Plasma stability was measured three times by administering the test compound at a concentration […] to human, rat, or mouse plasma (90 μL) at 37° C. Results thereof are shown in Table below and FIGS. 3A to 3E.

The subject of a further data set is HeLa cells. Description: Anti-proliferative activity test in HeLa cell line (MTT). The format is cell-based. The conditions noted are these: Homo sapiens, 48 h, grown for 2 days, mean of 2. As to the method: HeLa cells (American Type Culture Collection: ATCC, USA), a human cervical cancer cell line, were seeded in a 96-well plate at 3×10^3 cells/well, and the cells were then treated with compounds of Examples or Comparative Example according to the present invention and grown for 2 days. Then, MTT (3-(4,5-dimethylthiazol-2-yl)-2,5-diphenyltetrazolium bromide) reagent was added at 10 μL/well. After 2 hours, absorbance was measured at “OD 450” and statistical values were obtained using Prism™6 program. The data shown in Table below are mean values of results obtained by repeating the analysis twice.

A short description of data set [3]: Metabolic stability test in liver microsomes. Type of data set: in vitro ADME. The conditions noted are these: 0.5 mg protein/mL, 37° C. On the procedure:
(§1) The test compounds at a concentration of […] were administered in the presence or absence of NADPH (1 mM) to liver […] (0.5 mg protein/mL) of humans, rats and mice, and metabolic stability was tested at 37° C. for 30 minutes. In addition, buspirone was used as a positive control. Results thereof are shown in Table below and FIGS. 4A to 4E.
For orientation: Microsomes from liver hold many membrane-bound enzymes, among them those of drug oxidation.

Data set [4] can be described thus: Stability in buffer (line of the metabolic stability test). Type of data set: in vitro ADME. On the procedure: as §1
Another data set relates to MCF7/ADR. Kind of data set: Anti-proliferative activity test in cancer cells exhibiting multidrug resistance (MTT). Type of data set: cell-based. The conditions noted are these: ratio IC50 MCF7/ADR to IC50 MCF7. On the procedure: (§2) HeLa cells (American Type Culture Collection: ATCC, USA), a human cervical cancer cell line, were seeded in a 96-well plate at 3×10^3 cells/well, and the cells were then treated with compounds of Examples or Comparative Example according to the present invention and grown for 2 days. Then, MTT (3-(4,5-dimethylthiazol-2-yl)-2,5-diphenyltetrazolium bromide) reagent was added at 10 μL/well. […] The data shown in Table below are mean values of results obtained by repeating the analysis twice. Specifically, K562 and MCF7 (Bio Evaluation Center, Korea Research Institute of Bioscience and Biotechnology, Korea) and multidrug-resistant cell lines of each of these cell lines, i.e., K562/ADR and MCF7/ADR (Bio Evaluation Center, Korea Research Institute of Bioscience and Biotechnology, Korea), were cultured on microtiter plates (1-3×10^3 cells/well). […] The data shown in Table below are mean values of results obtained by repeating the analysis three times.

The test system of the next data set is K562/ADR. The description is as above. Type of data set: cell-based. The conditions noted are these: ratio IC50 K562/ADR to IC50 K562. On the procedure: as §2

In the case of `CCN(CC)CCOC(=O)c1ccc(N)cc1` [Procaine, procaine, reference compound], the “Residue % (180 minutes elapsed), Mean” value in the data set “Stability test in plasma [1]” is on record as 1.89%; in “Stability test in plasma [2]” (Human plasma) it was 0.45%; in “Stability test in plasma [2]” (Mouse plasma) it was 1.06%.

Consider `CCOCCn1c(Cl)c(/C=N/NC(=O)c2cc3cc(Cl)ccc3o2)c2ccccc21` [Example 16, (E)-5-chloro-N′-{[2-chloro-1-(2-ethoxyethyl)-1H-indol-3-yl]methylene}benzofuran-2-carbohydrazide], for which the midpoint of inhibition with HeLa cells, the IC50, lay at 0.455 µM.

Consider `Cc1ccc2oc(C(=O)N/N=C/c3c(Cl)n(C)c4ccccc34)cc2c1` [Example 2, (E)-N′-[(2-chloro-1-methyl-1H-indol-3-yl)methylene]-5-methylbenzofuran-2-carbohydrazide], for which the half-life at 5 mM in the data set “Stability test in plasma [1]”, in the data set “Stability test in plasma [2]” (Human plasma) and in the data set “Stability test in plasma [2]” (Mouse plasma) was over 3 h throughout. The “Residue % (180 minutes elapsed), Mean” value in “Stability test in plasma [1]” is on record as 75.82%; in “Stability test in plasma [2]” (Human plasma), 90.43%; in “Stability test in plasma [2]” (Mouse plasma), 55.82%. In the data set with HeLa cells, this compound returned an IC50 of 0.892 µM. Besides, the “Residue (%) after culturing for 30 min” value amounted to 8.69 ± 0.44% in data set [3] (Human, +NADPH); 36.40 ± 1.90% in data set [3] (Human, −NADPH); 2.84 ± 0.34% in data set [3] (Mouse, +NADPH); 11.59 ± 1.06% in data set [3] (Mouse, −NADPH); 2.99 ± 0.64% in data set [3] (Rat, +NADPH); 41.45 ± 0.93% in data set [3] (Rat, −NADPH). The “Residue (%) after culturing for 30 min” value in data set [4] was determined as 77.94 ± 7.04%.

In the data set with HeLa cells, `CCOCCn1c(Cl)c(/C=N/NC(=O)c2cc3cc(NC(C)=O)ccc3o2)c2ccccc21` [Example 19, (E)-N′-{2-[2-((2-chloro-1-(2-ethoxyethyl)-1H-indol-3-yl)methylene]hydrazine-1-carbonyl}benzofuran-5-yl)acetamide] gave an IC50 of 4.52 µM.

Take `CCOCCn1c(Cl)c(/C=N/NC(=O)c2cc3cc(C)ccc3o2)c2cc(C)ccc21` [Example 13, (E)-N′-[(2-chloro-1-(2-ethoxyethyl)-5-methyl-1H-indol-3-yl]methylene}-5-methylbenzofuran-2-carbohydrazide]: in the data set with HeLa cells, the half-maximal inhibitory concentration (IC50) is 0.337 µM.

Take `CCOCCn1c(Cl)c(/C=N/NC(=O)c2cc3cc(C)ccc3o2)c2cc(OC(F)(F)F)ccc21` [Example 12, (E)-N′-[(2-chloro-1-(2-ethoxyethyl)-5-(trifluoromethoxy)-1H-indol-3-yl]methylene}-5-methylbenzofuran-2-carbohydrazide]: the half-inhibitory concentration (IC50) in the data set on HeLa cells turned out to be 0.619 µM.

Turning to `COc1cc2c(c(OC)c1OC)-c1ccc(OC)c(=O)cc1[C@@H](NC(C)=O)CC2` [Colchicine, colchicine], the “Resistance Factor” value was found to be 34.15 with MCF7/ADR and 22.91 in the data set with K562/ADR.

In turn, `CCOC(=O)Cn1c(C)c(/C=N/NC(=O)c2cc3c(OC)cc(OC)cc3o2)c2ccccc21` [Example 20, (E)-ethyl-2-(3-((2-(4,6-dimethoxybenzofuran-2-carbonyl) hydrazinylidene)methyl)-2-methyl-1H-indol-1-yl)acetate] displayed an IC50 with HeLa cells of 0.5 µM.

With `O=C1CC2(CCCC2)CC(=O)N1CCCCN1CCN(c2ncccn2)CC1` [Buspirone, buspirone, reference compound], the “Residue (%) after culturing for 30 min” value in data set [3] (Human, +NADPH) turned out to be 2.21 ± 0.03%; in data set [3] (Human, −NADPH), 91.06 ± 0.40%; in data set [3] (Mouse, +NADPH), 0.32 ± 0.05%; in data set [3] (Mouse, −NADPH) it was 94.74 ± 0.74%; in data set [3] (Rat, +NADPH), 0.41 ± 0.02%; in data set [3] (Rat, −NADPH), 93.08 ± 1.21%.

`CCOCCn1c(Cl)c(/C=N/NC(=O)c2cc3cc(C)ccc3o2)c2ccc(OC)cc21` [Example 9, (E)-N′-[(2-chloro-1-(2-ethoxyethyl)-6-methoxy-1H-indol-3-yl]methylene}-5-methylbenzofuran-2-carbohydrazide] yielded a 50% inhibitory concentration (IC50) in the data set on HeLa cells of 0.232 µM.

In the data set with HeLa cells, `CCOCCn1c(C(F)(F)F)c(/C=N/NC(=O)c2cc3cc(C)ccc3o2)c2ccccc21` [Example 6, (E)-N′-{[1-(2-ethoxyethyl)-2-(trifluoromethyl)-1H-indol-3-yl]methylene}-5-methylbenzofuran-2-carbohydrazide] registered an IC50 of 1.22 µM.

Turning to `CCOCCn1c(Br)c(/C=N/NC(=O)c2cc3cc(C)ccc3o2)c2ccccc21` [Example 5, (E)-N′-[(2-bromo-1-(2-ethoxyethyl)-1H-indol-3-yl]methylene}-5-methylbenzofuran-2-carbohydrazide], in the data set with HeLa cells, the IC50 is 0.263 µM.

Turning to `CCOCCn1c(Cl)c(/C=N/NC(=O)c2cc3cc(C)ccc3o2)c2cc(Cl)ccc21` [Example 11, (E)-N′-[(2,5-dichloro-1-(2-ethoxyethyl)-1H-indol-3-yl]methylene}-5-methylbenzofuran-2-carbohydrazide], the midpoint of inhibition in the data set with HeLa cells, the IC50, lay at 0.243 µM.

The compound `CCOCCn1c(Cl)c(/C=N/NC(=O)c2cc3c(OC)cc(OC)cc3o2)c2ccccc21` [Example 18, (E)-N′-[(2-chloro-1-(2-ethoxyethyl)-1H-indol-3-yl]methylene}-4,6-dimethoxybenzofuran-2-carbohydrazide] came in with an IC50 in the data set on HeLa cells of 0.563 µM.

As for `COCCn1c(Cl)c(/C=N/NC(=O)c2cc3cc(C)ccc3o2)c2ccccc21` [Example 7, (E)-N′-[(2-chloro-1-(2-methoxyethyl)-1H-indol-3-yl]methylene}-5-methylbenzofuran-2-carbohydrazide], in the data set with HeLa cells, the IC50 is 0.233 µM.

For `CCOCCn1c(Cl)c(/C=N/NC(=O)c2cc3cc(OC)ccc3o2)c2ccccc21` [Example 14, (E)-N′-[(2-chloro-1-(2-ethoxyethyl)-1H-indol-3-yl]methylene}-5-methoxybenzofuran-2-carbohydrazide], in the data set with HeLa cells, the 50% inhibitory concentration (IC50) turned out to be 0.262 µM.

For the compound `CCOCCn1c(Cl)c(/C=N/NC(=O)c2cc3cc(C)ccc3o2)c2cc(F)ccc21` [Example 10, (E)-N′-[(2-chloro-1-(2-ethoxyethyl)-5-fluoro-1H-indol-3-yl]methylene}-5-methylbenzofuran-2-carbohydrazide], in the data set on HeLa cells, the IC50 came out at 0.221 µM.

Turning to `Cc1ccc2oc(C(=O)N/N=C/c3c(Cl)[nH]c4ccccc34)cc2c1` [Example 1, (E)-N′-[(2-chloro-1H-indol-3-yl)methylene]-5-methylbenzofuran-2-carbohydrazide], the IC50 in the data set on HeLa cells came out at 3.88 µM.

The compound `CCOC(=O)Cn1c(C)c(/C=N/NC(=O)c2cc3c(ccc4ccccc43)o2)c2ccccc21` [Comparative Example 1, (E)-ethyl 2-(2-methyl-3-((2-(naphtho[2,1-b]furan-2-carbonyl)hydrazono)methyl)-1H-indol-1-yl)acetate, reference compound] returned a concentration for half-maximal inhibition (IC50) in the data set on HeLa cells of 0.562 µM.

For orientation: IC50 means the concentration at which inhibition is half-maximal. In general, half-life refers to how long it takes for the measured level to halve.

Source of the values: US12612389B2, “Benzofuran-based N-acylhydrazone derivative and pharmaceutical composition comprising same” (KOREA RESEARCH INSTITUTE OF BIOSCIENCE AND BIOTECHNOLOGY, priority 2019, dated 2026).
